Experimental data as given in US20040013643A1, “Methods for treatment of multiple sclerosis with statins” (Novlmmune S.A., priority 2000, published 2004).
“Also recorded” adds a separate entry of the source.

How the values were obtained:
MHC class II = details: Atorvastatin, Lovastatin, Pravastatin compared; FIG. 1a
Protocol: Cell isolation and culture. […] Flow cytometry. […] Data were analyzed using […] software (Becton Dickinson).

CD40 = assay: IFN-γ induced CD40 expression on human vascular endothelial cells (Western blot, FACS); type: cell-based; details: ECs
Protocol: Cell isolation and culture. Human vascular endothelial cells (ECs) were isolated from saphenous veins and mammary arteries by collagenase treatment (Worthington Biochemicals), and cultured in dishes coated with gelatin (Difco). Cells were maintained in medium 199 (1 4199; BioWhittaker) supplemented with 100 U/ml penicillin/streptomycin (BioWhittaker), 5% FCS (Gibco), 100 μg/ml heparin (Sigma) and 50 μg/ml ECGF (endothelial cell growth factor; Pel-Freez Biological). Human vascular smooth muscle (SMCs) cells were isolated from human saphenous veins and mammary arteries by explant outgrowth, and cultured in DMEM (BioWhittaker) supplemented with 1% L-glutamine (BioWhittaker), 1% penicillin/streptomycin, and 10% FCS. Both cell types were subculture following trypsinization (0.5% trypsin (Worthington Biochemicals)/0.2% EDTA (EM Science)) in P100-culture dishes (Becton Dickinson). Culture media and FCS contained less than 40 pg LPS/ml as determined by chromogenic Limulus amoebocyte-assay analysis (QLC1000; BioWhittaker).
Western blot analysis. Cells were harvested in ice-cold RIPA solubilization buffer, and total amounts of protein were determined using a bicinchoninic acid quantification assay (Pierce, Rockford, Ill.). Twenty μg of total protein/lane were separated by SDS/PAGE under reducing conditions and blotted to polyvinylidene difluoride membranes (Millipore Corp, Bedford, Mass.) using a semidry blotting apparatus (Bio-Rad, Hercules, Calif.). Blots were blocked overnight in 5% defatted dry milk/PBS/0.1% Tween, and then incubated for 1 hour at room temperature with primary antibody (1:40) (rabbit polyclonal anti-CD40 Santa Cruz, San Diego, Calif.), or mouse monoclonal anti-human P-actin (1:5000) (Phanningen) for control of loading. This was followed by a 1 hour incubation with secondary peroxidase-conjugated antibody (1:10′000), (Jackson Immunoresearch, West Grove, Pa.). All steps were performed at room temperature and in between incubation steps cells were rinsed with PBS/0.1% Tween. lmmunoreactivity was detected using the enhanced chemiluminescence detection method according to the manufacturer's instructions. (Amersharn, Ddbendorf, Switzerland), and subsequent exposure of the membranes to x-ray film. Analysis of quantification of detection was performed using AIDA software.
Flow cytometry. Cells were incubated with FITC-conjugated specific antibody (60 min, […]) and analyzed in a Becton Dickinson FACScan flow cytometer. At least 20.000 viable cells were analyzed per condition. Data were analyzed using […] software (Becton Dickinson).
Surface CD40 expression was analyzed by […] after 24 hrs.

CD40 mediated pathways = assay: Cytokine release (MCP-1, IL-6, IL-8) from endothelial cells activated by CD40L, ELISA; type: cell-based, human; details: ECs; CD154 stimulation with statin; L-mevalonate added
Protocol: Cytokines assay. […] Experiments were performed in the presence of polymyxin B (1 μg/ml). Antibody binding was detected by adding substrate (R&D), and absorbance measured at 450 nm using a Dynatech plate reader. The amount of IL-6, IL-8 and MCP-I detected was calculated from a standard curve prepared with the recombinant protein. Samples were assayed in duplicates.
To investigate the functional consequences of inhibition of CD40 expression by statins on Endothelial Cells activation by CD40L, secreted cytokines were analyzed such as Interleukin-6 (IL-6), interleukin-8 (IL-8), macrophages chemoattractant protein-1 (MCP-1).

CC(C)c1c(C(=O)Nc2ccccc2)c(-c2ccccc2)c(-c2ccc(F)cc2)n1CC[C@@H](O)C[C@@H](O)CC(=O)O [Atorvastatin]
relative potency as MHC class II repressor among the forms tested (MHC class II): most powerful MHC class II repressor | IFN-γ induced CD40 expression (CD40; IFN-γ 500 U/ml, 24 hrs): repressed this induction of CD40 in a dose-dependant manner; also recorded: decreases IFN-γ induced CD40 protein expression on human atheroma-associated cells in a dose-dependant manner | concentration range over which the effect on IFN-γ induced CD40 was observed (CD40; IFN-γ 500 U/ml, 24 hrs, FIG. 7): 0.08 to 0.5 µM | IFN-γ induced CD40 expression (CD40; IFN-γ 500 U/ml, 24 hrs, listed as atorvastatin): decreased | effect on IFN-γ induced CD40 in the presence of L-mevalonate (CD40; with L-mevalonate): markedly reduced | CD40 expression, treatment with statin alone (CD40; without IFN-γ): had an effect on CD40 expression

CC[C@H](C)C(=O)O[C@H]1C[C@@H](C)C=C2C=C[C@H](C)[C@H](CC[C@@H]3C[C@@H](O)CC(=O)O3)[C@H]21 [Lovastatin]
IFN-γ induced CD40 expression (CD40; IFN-γ 500 U/ml, 24 hrs): decreased

L-mevalonate
reversal of the statin effect by addition of L-mevalonate (CD40 mediated pathways): significantly reverses the process
